The values that follow come from patent US11807607B1, “Aminocarbazole compounds as antibacterial agents” (KING FAISAL UNIVERSITY, priority 2023, dated 2023).

In experiment [1] the test system is Klebsiella pneumonia MTCC 618. The experiment can be described thus: Antibacterial MIC, CLSI M07-A10 dilution susceptibility test. It counts as cell-based. The conditions noted are these: Klebsiella pneumoniae, MTCC618.
Experiment [2] concerns Staphylococcus epidermidis. Described as above. It counts as cell-based.
The test system of experiment [3] is Pseudomonas aeruginosa MTCC 741. Described as above. It counts as cell-based. The conditions noted are these: MTCC741.
The subject of experiment [4] is Escherichia coli MTCC 443. Described as above. It counts as cell-based. The conditions noted are these: MTCC443.
Experiment [5] relates to Enterococcus faecium ATCC 51559 (VRE resistant). The experiment is described as above. It counts as cell-based.
The subject of experiment [6] is Enterococcus faecium ATCC 35667. The experiment is described as above. It counts as cell-based. The conditions noted are these: ATCC35667.
The test system of experiment [7] is Staphylococcus aureus ATCC 29213. The experiment is described as above. It counts as cell-based. The conditions noted are these: ATCC29213.
Experiment [8] relates to Bacillus subtilis MTCC 441. The experiment is described as above. It counts as cell-based. The conditions noted are these: MTCC441.
Experiment [9] relates to Staphylococcus aureus ATCC BAA-1556 (MERSA resistant). Described as above. The conditions noted are these: ATCCBAA1556. It counts as cell-based.
The test system of experiment [10] is Gram-positive and Gram-negative bacterial strains, drug sensitive and drug resistant. The experiment can be described thus: In vitro antibacterial activity evaluation, whole strain panel.
The target of a further experiment is T1, DNA gyrase from E. coli (Escherichia coli, UniProt P0AES4+P0AES6).
T1 construct: purchased Inspiralis
Nature of the experiment: Inspiralis E. coli DNA gyrase inhibition assay. It counts as biochemical.

Experiment [11] has as its system Mycobacterium tuberculosis H37Rv strain. The experiment can be described thus: Anti-tubercular alamar blue microplate MIC assay. It counts as cell-based. The conditions noted are these: 168 h, M. tuberculosis H37Rv, 7 days at 37° C., read-out: anti-mycobacterial activity (MIC). (The colour change of resazurin is a common sign of viable cells or microbes.)

Molecules are shown by their SMILES. Converted amounts (≈) assume the structure as drawn. Read-outs that look alike come from different tables or passages of the source.

T1 sequence (P0AES4 whole entry, one chain of several): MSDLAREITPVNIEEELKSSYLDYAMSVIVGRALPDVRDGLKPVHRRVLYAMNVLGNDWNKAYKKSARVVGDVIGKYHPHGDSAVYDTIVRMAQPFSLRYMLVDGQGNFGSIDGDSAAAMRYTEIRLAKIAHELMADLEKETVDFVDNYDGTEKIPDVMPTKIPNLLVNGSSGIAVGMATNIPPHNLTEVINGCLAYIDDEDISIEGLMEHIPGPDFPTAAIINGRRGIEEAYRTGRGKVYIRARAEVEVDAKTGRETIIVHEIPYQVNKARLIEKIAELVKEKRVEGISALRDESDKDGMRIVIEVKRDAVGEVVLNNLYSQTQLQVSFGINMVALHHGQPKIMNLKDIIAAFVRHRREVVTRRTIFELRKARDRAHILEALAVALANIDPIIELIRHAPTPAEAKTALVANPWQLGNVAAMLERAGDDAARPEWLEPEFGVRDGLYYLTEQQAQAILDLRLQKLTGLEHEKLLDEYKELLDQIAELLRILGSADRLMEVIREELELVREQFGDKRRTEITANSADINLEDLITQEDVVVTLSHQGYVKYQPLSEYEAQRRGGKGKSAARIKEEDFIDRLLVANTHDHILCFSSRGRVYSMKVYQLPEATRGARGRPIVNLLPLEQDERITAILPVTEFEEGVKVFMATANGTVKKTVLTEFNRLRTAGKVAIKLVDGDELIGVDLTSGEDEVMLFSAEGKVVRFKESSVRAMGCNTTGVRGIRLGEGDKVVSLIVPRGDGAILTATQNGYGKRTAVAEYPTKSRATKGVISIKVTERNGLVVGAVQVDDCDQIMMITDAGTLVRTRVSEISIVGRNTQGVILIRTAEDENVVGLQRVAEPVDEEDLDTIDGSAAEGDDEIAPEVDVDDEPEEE
Method for DNA gyrase from E. coli: Inhibitory potencies were investigated utilizing the Inspiralis assay on streptavidin-coated 96-well microtiter plates. First, the plates were rehydrated with buffer (20 mM Tris-HCl with pH 7.6, 0.01% w/v BSA, 0.05% v/v Tween 20, 137 mM NaCl) and the biotinylated oligonucleotide was then immobilized. After washing off the unbound oligonucleotide, the enzyme test was performed. […] Reaction solutions were incubated at 37° C. for 30 min. After that, the TF buffer (50 mM NaOAc with pH 5.0, 50 mM NaCl and 50 mM MgCl2) was added to terminate the enzymatic reaction. After additional incubation for 30 min at rt, during which biotinoligonucleotide-plasmid triplex was formed, the unbound plasmid was washed off using TF buffer and SybrGOLD in T10 buffer (10 mM Tris HCl with pH 8.0 and 1 mM EDTA) was added. The fluorescence was measured with a microplate reader (BioTek Synergy H4, excitation: 485 nm, emission: 535 nm). Initial screening was done at 100 or 10 μM concentration of inhibitors. […] GraphPad Prism software was used to calculate the IC50 values. The result is given as the average value of three independent measurements.

As usually defined, the MIC is the least concentration at which growth counts as inhibited. On to `CNc1cc(F)cc2c1[nH]c1ccc(Nc3cccc(C(=O)O)c3)cc12` [Compound 6, 3-((6-fluoro-8-(methylamino)-9H-carbazol-3-yl)amino)benzoic acid], for which the MIC in experiment [1] (Klebsiella pneumonia MTCC 618, read-out: MIC) turned out to be 1 µg/mL (≈ 2.86 µM); in [2] (read-out: MIC), 0.5 µg/mL (≈ 1.43 µM); in experiment [3] (Pseudomonas aeruginosa MTCC 741, read-out: MIC), 16 µg/mL (≈ 45.8 µM); in experiment [4] (Escherichia coli MTCC 443, read-out: MIC), 32 µg/mL (≈ 91.6 µM); in experiment [5] (Enterococcus faecium ATCC 51559 (VRE resistant), read-out: MIC), 2 µg/mL (≈ 5.72 µM); in experiment [6] (Enterococcus faecium ATCC 35667, read-out: MIC), 1 µg/mL (≈ 2.86 µM). Also, the MIC in experiment [7] amounted to 0.75 µg/mL (≈ 2.15 µM); in experiment [8] (Bacillus subtilis MTCC 441, read-out: MIC), 0.75 µg/mL (≈ 2.15 µM); in experiment [9] it was 1 µg/mL (≈ 2.86 µM).
With `CN[C@H](CC(C)C)C(=O)N[C@H]1C(=O)N[C@@H](CC(N)=O)C(=O)N[C@H]2C(=O)N[C@H]3C(=O)N[C@H](C(=O)N[C@H](C(=O)O)c4cc(O)cc(O)c4-c4cc3ccc4O)[C@H](O)c3ccc(c(Cl)c3)Oc3cc2cc(c3O[C@@H]2O[C@H](CO)[C@@H](O)[C@H](O)[C@H]2O[C@H]2C[C@](C)(N)[C@H](O)[C@H](C)O2)Oc2ccc(cc2Cl)[C@H]1O` [Vancomycin, reference compound], the MIC was above 128 µg/mL in experiment [1]; 1 µg/mL (≈ 0.69 µM) in experiment [2]; above 128 µg/mL in experiment [3] (Pseudomonas aeruginosa); above 128 µg/mL in [4] (Escherichia coli); above 128 µg/mL in experiment [5] (Enterococcus faecium); 0.5 µg/mL (≈ 0.345 µM) in experiment [6] (Enterococcus faecium). In [8] (Bacillus subtilis), this compound came in with an MIC of 0.5 µg/mL (≈ 0.345 µM).
The IC50 is the concentration needed to halve the response being measured. Low values mean higher potency, high ones lower potency. On to `CNc1cc(F)cc2c1[nH]c1ccc(-c3cccc(CC(=O)O)c3)cc12` [Compound 1, 2-(3-(6-fluoro-8-(methylamino)-9H-carbazol-3-yl)phenyl)acetic acid], for which the “antibacterial activity (in words)” value in experiment [10] was “promising antibacterial activity”. On DNA gyrase from E. coli, half-maximal inhibition (IC50) was put at 80 nM. In [11], the MIC is 2 µg/mL (≈ 5.74 µM).
